Source: US20240243327A1, “NAPHTHALENE DIIMIDE COMPOUND AND REDOX FLOW BATTERY CONTAINING THE SAME” (Korea Advanced Institute of Science and Technology, priority 2023, published 2024)
Read-outs that look alike come from different tables or passages of the source.

Experiment: Analysis of solubility (UV-Vis calibration at 361 nm, saturated solution at room temperature)
Type: physicochemical
Details: for solubility: thermodynamic from solid
Method: First, the compound was dissolved in 2 mL of deionized water (DI water), and then the UV-Vis spectrum of the solution was measured. 1 mL of the solution was taken out, 1 mL of deionized water was added to reduce the concentration by half, and then the UV-Vis spectrum was measured. This process was repeated several times. A calibration curve was drawn using λ=361 nm (π-π* transition) from the UV-Vis spectrum. At this time, a UV-Vis spectrum of deionized water was used for baseline measurement. […] The solution was filtered, and then the total volume of the solution was recorded. […] of the filtrate was taken, and then deionized water was added to bring the volume to 2 mL. Thereafter, 1 mL of the solution was taken and fresh deionized water was added to dilute the solution to a volume of 2 mL. The UV-Vis spectrum was recorded until the absorbance at λ=361 nm was smaller than 1 a.u. The linear equation of the calibration curve was used to calculate the concentration of the solution, and the molarity equation was used to estimate the maximum solubility of the compound.

Molecule C[N+](C)(C)CCC[N+](C)(C)CCCN1C(=O)c2ccc3c4c(ccc(c24)C1=O)C(=O)N(CCC[N+](C)(C)CCC[N+](C)(C)C)C3=O [Example 1] has a solubility (1.5 M KCl aqueous solution, saline or isotonic, KCl aqueous solution (method: 1.5 M KCl), room temperature, read-out: solubility in the KCl solution) of ~1200 mM and a solubility (deionized water, room temperature, read-out: solubility in water) of ~1500 mM.

Work on O=C(O)CN1C(=O)c2ccc3c4c(ccc(c24)C1=O)C(=O)N(CC(=O)O)C3=O [Comparative Example 2, 2,2′-(1,3,6,8-tetraoxo-1,3,6,8-tetrahydrobenzo [lmn] [3,8]phenanthroline-2,7-diyl)diacetate Potassium] yielded a solubility (saline or isotonic, 1 M KCl solution as printed, read-out: solubility in the 1 M KCl solution) of ~25 mM.

For CN1C(=O)c2ccc3c4c(ccc(c24)C1=O)C(=O)N(C)C3=O [Comparative Example 1, 2,7-dimethylbenzo [lmn] [3,8] phenanthroline-1,3,6,8 (2H,7H) -tetraone], the solubility in water (deionized water, room temperature, result in words) was “substantially insoluble in water”.
